Results on eight molecules are retold here after ChEMBL document CHEMBL1126345, “Synthesis of biological evaluation of 4-deshydroxy-4-methyl etoposide and teniposide analogs” (Bioorg Med Chem Lett, 1992).

Values after ≈ are worked out from the molar mass of the structure shown. Active and inactive are the calls of the source. The calls are words filed in the database; no cut-off is given here.

Assay [1] concerns the target DNA topoisomerase II (Homo sapiens) (UniProt P11388+Q02880). Kind of assay: Double strand DNA breakage reflecting stabilization of DNA topoisomerase II intermediate by the compound expressed in terms of ng of DNA/unit of enzyme/mM of drug.
The test system of assay [2] is P388. Kind of assay: In vivo antitumor activity against Murine P388 murine leukemia cell line up to a conc of 100 mg/kg; A - Active. Type of assay: functional, organism-based. Details: dose 100 mg/kg. As to conditions: Mus musculus.
Assay [3] concerns HCT-116. Kind of assay: In vitro inhibition of compound against HCT/VP35 cell lines was determined after 72 hr of administration of the dose. Type of assay: functional, cell-based. As to conditions: Homo sapiens, HCT-116, 72 h.
Assay [4] deals with HCT cell line. Kind of assay: In vitro inhibition of compound against HCT cell lines was determined after 72 hr of administration of the dose. As to conditions: Homo sapiens. Type of assay: functional, cell-based.
Assay [5] has as its system P388. Kind of assay: In vivo antitumor activity against Murine P388 murine leukemia cell line up to a conc of 100 mg/kg; IA - Totally inactive. Type of assay: functional, organism-based. Details: dose 100 mg/kg. As to conditions: Mus musculus.
A short description of assay [6]: Resistance ratio was determined as the ratio of resistance to cytotoxicity against human colon tumor (HCT116) to that of (HCT/VP35) cells grown in culture. Type of assay: functional.

`COc1cc([C@@H]2c3cc4c(cc3[C@@H](O[C@@H]3O[C@@H]5CO[C@@H](c6cccs6)O[C@H]5[C@H](O)[C@H]3O)[C@H]3COC(=O)[C@H]23)OCO4)cc(OC)c1O` gave a DSB in assay [1] of 346.

Take `COc1cc([C@@H]2c3cc4c(cc3[C@@H](O[C@@H]3O[C@@H]5CO[C@@H](C)O[C@H]5[C@H](O)[C@H]3O)[C@H]3COC(=O)[C@H]23)OCO4)cc(OC)c1C`: the outcome in assay [2] was Active. Moreover, the IC50 in assay [3] and in assay [4] was 5.7 µg/mL (≈ 9.72 µM) throughout. For the same molecule, in assay [1], the DSB worked out at 26.

Regarding `COc1cc([C@@H]2c3cc4c(cc3[C@@H](O[C@@H]3O[C@@H]5CO[C@@H](c6cccs6)O[C@H]5[C@H](O)[C@H]3O)[C@H]3COC(=O)[C@H]23)OCO4)cc(OC)c1C`, the outcome in assay [5] was inactive. In addition, in assay [1], the DSB was found to be 49.

Consider `C=CCc1c(OC)cc([C@@H]2c3cc4c(cc3[C@@H](O[C@@H]3O[C@@H]5CO[C@@H](C)O[C@H]5[C@H](O)[C@H]3O)[C@H]3COC(=O)[C@H]23)OCO4)cc1OC`, for which the result in assay [5] was inactive. For the same molecule, the DSB in assay [1] stood at 17.

For `COc1cc(OC)cc([C@@H]2c3cc4c(cc3[C@@H](O[C@@H]3O[C@@H]5CO[C@@H](C)O[C@H]5[C@H](O)[C@H]3O)[C@H]3COC(=O)[C@H]23)OCO4)c1`, the Resistance ratio in assay [6] was 0.5. The molecule also yielded a DSB in assay [1] of 27.

In the case of `C=Cc1c(OC)cc([C@@H]2c3cc4c(cc3[C@@H](O[C@@H]3O[C@@H]5CO[C@@H](C)O[C@H]5[C@H](O)[C@H]3O)[C@H]3COC(=O)[C@H]23)OCO4)cc1OC`, the outcome in assay [5] was inactive. Also, the DSB in assay [1] was 17.

As for `COc1cc([C@@H]2c3cc4c(cc3[C@@H](O[C@@H]3O[C@@H]5CO[C@@H](C)O[C@H]5[C@H](O)[C@H]3O)[C@H]3COC(=O)[C@H]23)OCO4)cc(OC)c1O`, the DSB in assay [1] was determined as 305.

In turn, `C=CCc1c(OC)cc([C@@H]2c3cc4c(cc3[C@@H](O[C@@H]3O[C@@H]5CO[C@@H](c6cccs6)O[C@H]5[C@H](O)[C@H]3O)[C@H]3COC(=O)[C@H]23)OCO4)cc1OC` came in with a DSB in assay [1] of 42.
